# Molecular target: T1, mGlyT-1b (Mus musculus, UniProt P28571)
# T1 construct: host or cells: Flp-in-CHO cells, stably transfected
# T1 sequence (P28571 1-651 isoform P28571-2): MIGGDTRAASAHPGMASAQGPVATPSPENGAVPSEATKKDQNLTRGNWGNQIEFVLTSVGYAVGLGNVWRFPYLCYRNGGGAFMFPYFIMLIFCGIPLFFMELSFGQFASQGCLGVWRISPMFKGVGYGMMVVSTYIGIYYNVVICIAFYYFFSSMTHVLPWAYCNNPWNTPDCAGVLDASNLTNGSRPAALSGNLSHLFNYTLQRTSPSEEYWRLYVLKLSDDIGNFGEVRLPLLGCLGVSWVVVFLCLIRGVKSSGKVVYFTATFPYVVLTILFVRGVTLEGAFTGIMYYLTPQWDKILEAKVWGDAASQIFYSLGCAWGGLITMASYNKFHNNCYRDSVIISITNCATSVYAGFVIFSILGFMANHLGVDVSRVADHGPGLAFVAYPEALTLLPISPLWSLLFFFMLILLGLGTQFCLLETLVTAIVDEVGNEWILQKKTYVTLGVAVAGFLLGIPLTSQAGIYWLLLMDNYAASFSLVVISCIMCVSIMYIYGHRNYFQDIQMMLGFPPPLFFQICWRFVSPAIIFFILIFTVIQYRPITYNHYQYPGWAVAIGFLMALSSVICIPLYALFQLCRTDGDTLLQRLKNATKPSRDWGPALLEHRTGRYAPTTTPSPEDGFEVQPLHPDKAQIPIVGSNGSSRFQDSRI
# Assay: Glycine uptake inhibition assay (mGlyT-1b)
# Format: cell-based
# Settings: [3H]-glycine uptake, Flp-in-CHO cells transfected with mGlyT-1b cDNA
# Procedure: DMEM complete medium: Nutrient mixture F-12 (Gibco Life-technologies), fetal bovine serum (FBS) 5%, (Gibco life technologies), Penicillin/Streptomycin 1% (Gibco life technologies), Hygromycin 0.6 mg/ml (Gibco life technologies), Glutamine 1 mM Gibco life technologies).
# Uptake buffer (UB): 150 mM NaCl, 10 mM Hepes-Tris, pH 7.4, 1 mM CaCl2, 2.5 mM KCl, 2.5 mM MgSO4, 10 mM (+) D-glucose. Flp-in™-CHO (Invitrogen Cat n° R758-07)cells stably transfected with mGlyT1b cDNA.
# Glycine uptake inhibition assay (mGlyT-1b)
# On day 1 mammalian cells, (Flp-in™-CHO), transfected with mGlyT-1b cDNA, were plated at the density of 40,000 cells/well in complete F-12 medium, without hygromycin in 96-well culture plates. On day 2, the medium was aspirated and the cells were washed twice with uptake buffer (UB). The cells were then incubated for 20 min at 22° C. with either (i) no potential competitor, (ii) 10 mM non-radioactive glycine, (iii) a concentration of a potential inhibitor. A range of concentrations of the potential inhibitor was used to generate data for calculating the concentration of inhibitor resulting in 50% of the effect (e.g. IC50, the concentration of the competitor inhibiting glycine uptake of 50%). A solution was then immediately added containing [^3H]-glycine 60 nM (11-16 Ci/mmol) and 25 μM non-radioactive glycine. The plates were incubated with gentle shaking and the reaction was stopped by aspiration of the mixture and washing (three times) with ice-cold UB. The cells were lysed with scintillation liquid, shaken 3 hours and the radioactivity in the cells was counted using a scintillation counter.
row,Compound,IC50
1,"CS(=O)(=O)c1ccc(-c2ccccc2)c(C(=O)N2CCc3nc(C(F)(F)F)ccc3C2)c1 [Example 1.8, (4-Methanesulfonyl-biphenyl-2-yl)-(2-trifluoromethyl-7,8-dihydro-5H-[1,6]naphthyridin-6-yl)-methanone]",82 nM
2,"CC(C)Oc1ccc(S(C)(=O)=O)cc1C(=O)N1CCc2cc(C(F)(F)F)ccc2C1 [Example 1.12, (2-Isopropoxy-5-methanesulfonyl-phenyl)-(6-trifluoromethyl-3,4-dihydro-1H-isoquinolin-2-yl)-methanone]",46 nM
3,"C[C@H](Oc1ccc(S(C)(=O)=O)cc1C(=O)N1CCc2cc(Cl)ccc2C1)C(F)(F)F [Example 1.18, (6-Chloro-3,4-dihydro-1H-isoquinolin-2-yl)-[5-methanesulfonyl-2-((S)-2,2,2-trifluoro-1-methyl-ethoxy)-phenyl]-methanone]",157 nM
4,"CC(C)Oc1ccc(S(C)(=O)=O)cc1C(=O)N1CCc2cc(Cl)ccc2C1 [Example 1.19, (6-Chloro-3,4-dihydro-1H-isoquinolin-2-yl)-(2-isopropoxy-5-methanesulfonyl-phenyl)-methanone]",359 nM
5,"COc1ccc2c(c1)CCN(C(=O)c1cc(S(C)(=O)=O)ccc1OC(C)C)C2 [Example 1.40, (2-Isopropoxy-5-methanesulfonyl-phenyl)-(6-methoxy-3,4-dihydro-1H-isoquinolin-2-yl)-methanone]",481 nM
6,"CC(C)Oc1ccc(S(C)(=O)=O)cc1C(=O)N1CCc2c(ccc3c4ccccc4n(C)c23)C1 [Example 1.47, (2-Isopropoxy-5-methanesulfonyl-phenyl)-(11-methyl-1,2,4,11-tetrahydro-pyrido[4,3-a]carbazol-3-yl)-methanone]",159 nM

# Results, then the compound that gave them:
row,IC50,Compound
1,321 nM,"CS(=O)(=O)c1ccc(N2CCOCC2)c(C(=O)N2CCc3cc(C(F)(F)F)ccc3C2)c1 [Example 1.13, (5-Methanesulfonyl-2-morpholin-4-yl-phenyl)-(6-trifluoromethyl-3,4-dihydro-1H-isoquinolin-2-yl)-methanone]"
2,175 nM,"C[C@H](Oc1ccc(S(C)(=O)=O)cc1C(=O)N1CCc2cc(C(F)(F)F)ccc2C1)C(F)(F)F [Example 1.14, [5-Methanesulfonyl-2-((S)-2,2,2-trifluoro-1-methyl-ethoxy)-phenyl]-(6-trifluoromethyl-3,4-dihydro-1H-isoquinolin-2-yl)-methanone]"
3,168 nM,"CS(=O)(=O)c1ccc(-c2ccccc2)c(C(=O)N2CCc3cc(C(F)(F)F)ccc3C2)c1 [Example 1.15, (4-Methanesulfonyl-biphenyl-2-yl)-(6-trifluoromethyl-3,4-dihydro-1H-isoquinolin-2-yl)-methanone]"
4,454 nM,"CC(C)Oc1ccc(S(C)(=O)=O)cc1C(=O)N1CCc2cc(C#N)ccc2C1 [Example 1.20, 2-(2-Isopropoxy-5-methanesulfonyl-benzoyl)-1,2,3,4-tetrahydro-isoquinoline-6-carbonitrile]"
5,215 nM,"CC(C)Oc1ccc(S(C)(=O)=O)cc1C(=O)N1CCc2ccc(Cl)cc2C1 [Example 1.25, (7-Chloro-3,4-dihydro-1H-isoquinolin-2-yl)-(2-isopropoxy-5-methanesulfonyl-phenyl)-methanone]"
6,163 nM,"CC(C)Oc1ccc(S(C)(=O)=O)cc1C(=O)N1CCc2ccc(Cl)c(Cl)c2C1 [Example 1.26, (7,8-Dichloro-3,4-dihydro-1H-isoquinolin-2-yl)-(2-isopropoxy-5-methanesulfonyl-phenyl)-methanone]"
7,344 nM,"CC(C)Oc1ccc(S(C)(=O)=O)cc1C(=O)N1CCc2cccc(Cl)c2C1 [Example 1.30, (8-Chloro-3,4-dihydro-1H-isoquinolin-2-yl)-(2-isopropoxy-5-methanesulfonyl-phenyl)-methanone]"
8,483 nM,Cc1c2c(c(C)c3c1OCO3)CN(C(=O)c1cc(S(C)(=O)=O)ccc1OC(C)C)CC2 [Example 1.53]
9,160 nM,"CC(C)Sc1ccc(S(C)(=O)=O)cc1C(=O)N1CCc2cc(Cl)ccc2C1 [Example 1.57, (6-Chloro-3,4-dihydro-1H-isoquinolin-2-yl)-(2-isopropylsulfanyl-5-methanesulfonyl-phenyl)-methanone]"

# Reference: patent publication US7442710B2, “Substituted phenyl methanones” (Hoffman-La Roche Inc., priority 2005, dated 2008)
